Assays:
[1] = Solubility of API CLX-155 in organic solvents; assay type: physicochemical
[2] = Moisture and thermal sensitivity of CLX-155; assay type: physicochemical
From the text: Dry granulation is also referred as pre-compression or double compression and is an agglomeration process designed to improve the flow and compression characteristics of powders that would otherwise have poor flow &/or compressibility. The process involves compaction of powder particles into larger pieces or compacts which are subsequently broken down into granules that can be further processed into dosage forms. Dry granulation is suitable for the compound which is sensitive to moisture and temperature.

- Solubility ([1]; in Acetonitrile): Slightly Soluble
- Solubility ([1]; in Methanol): Freely soluble
- Stability towards moisture [2]: moisture sensitive
- Thermal stability [2]: thermolabile
Structure (SMILES): CCCCCCCC(=O)Nc1nc(=O)n([C@@H]2O[C@H](C)[C@@H](OC(C)=O)[C@H]2OC(C)=O)cc1F [CLX-155, (2R, 3R, 4R, 5R)-2-(5-Fluoro-4-octanamido 2-oxopyrimidine-1(2H)-yl)-5-methyl-tetrahydrofuran-3,4-diyl-diacetate]
